# According to paper PMC3382171 (PLoS ONE, 2012):
# Assays:
# Assay in all cases: biochemical
# Conditions in all cases: read-out: Upstate KSS % inhibition at 1uM
# ZAP70 = ZAP70 (Homo sapiens, UniProt P43403); set-up: gene ZAP70
# Method: (§1) In these selectivity assays the concentration of ATP was set to the Km value of ATP for each kinase tested to allow for a relative potency comparison between the various kinases. The compounds were tested at 1 µM final concentration. […] (A) Kinase selectivity screen (KSS) performed at Upstate Biotechnology. […] (B) KSS performed at University of Dundee (Division of Signal Transduction Therapy). […] (PDF) Click here for additional data file.
# EGFR = EGFR (Homo sapiens, UniProt P00533)
# Method: as §1
# CDK2/CyclinA = CDK2/CyclinA (Homo sapiens, UniProt P24941)
# Method: as §1
# MLCK = molecular target: T1, MLCK (Homo sapiens, UniProt Q15746)
# T1 construct: gene MYLK
# Method: as §1
# ASK1 = molecular target: T2, ASK1 (Homo sapiens, UniProt Q99683)
# T2 construct: gene MAP3K5
# Method: as §1
# PRAK = molecular target: T3, PRAK (Homo sapiens, UniProt Q8IW41)
# T3 construct: gene MAPKAPK5
# Method: as §1
# Fms = molecular target: T4, Fms (Homo sapiens, UniProt P07333)
# T4 construct: gene CSF1R
# Method: as §1
# CDK3/cyclinE = CDK3/cyclinE (Homo sapiens, UniProt Q00526)
# Method: as §1
# PRK2 = molecular target: T5, PRK2 (Homo sapiens, UniProt Q16513)
# T5 construct: gene PKN2
# Method: as §1
# DDR2 = DDR2 (Homo sapiens, UniProt Q16832)
# Method: as §1
# PI3Kg = molecular target: T6, PI3Kg (Homo sapiens, UniProt P48736)
# T6 construct: gene PIK3CG
# Method: as §1
# CDK1/cyclinB = CDK1/cyclinB (Homo sapiens, UniProt P06493)
# Method: as §1
# mouse MKK4 = molecular target: T7, mouse MKK4 (Mus musculus, UniProt P47809)
# T7 construct: gene Map2k4
# Method: as §1
# Rsk3 = molecular target: T8, Rsk3 (Homo sapiens, UniProt Q15349)
# T8 construct: gene RPS6KA2
# Method: as §1
# c-RAF = molecular target: T9, c-RAF (Homo sapiens, UniProt P04049)
# T9 construct: gene RAF1
# Method: as §1
# SRPK2 = SRPK2 (Homo sapiens, UniProt P78362)
# Method: as §1
# PAK4 = PAK4 (Homo sapiens, UniProt O96013)
# Method: as §1
# MNK2 = molecular target: T10, MNK2 (Homo sapiens, UniProt Q9HBH9)
# T10 construct: gene MKNK2
# Method: as §1
# DYRK2 = molecular target: T11, DYRK2 (Homo sapiens, UniProt Q92630)
# T11 sequence (Q92630 1-601): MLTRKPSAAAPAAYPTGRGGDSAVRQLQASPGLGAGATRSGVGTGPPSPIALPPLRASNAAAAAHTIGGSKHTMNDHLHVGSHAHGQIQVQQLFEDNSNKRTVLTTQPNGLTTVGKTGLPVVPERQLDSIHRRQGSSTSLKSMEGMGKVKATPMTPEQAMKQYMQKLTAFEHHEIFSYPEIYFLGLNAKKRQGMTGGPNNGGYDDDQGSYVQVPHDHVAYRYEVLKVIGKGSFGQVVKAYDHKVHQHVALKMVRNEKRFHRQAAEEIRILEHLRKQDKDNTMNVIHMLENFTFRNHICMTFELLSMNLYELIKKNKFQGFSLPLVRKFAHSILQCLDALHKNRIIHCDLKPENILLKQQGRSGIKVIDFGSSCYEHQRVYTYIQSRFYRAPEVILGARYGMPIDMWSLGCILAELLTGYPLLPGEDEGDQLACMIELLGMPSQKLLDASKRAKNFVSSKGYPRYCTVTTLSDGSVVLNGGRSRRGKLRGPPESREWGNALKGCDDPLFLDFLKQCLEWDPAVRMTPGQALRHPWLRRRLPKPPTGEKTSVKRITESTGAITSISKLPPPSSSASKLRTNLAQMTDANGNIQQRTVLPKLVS
# Method: as §1
# GSK3beta = molecular target: T12, GSK3beta (Homo sapiens, UniProt P49841)
# T12 construct: gene GSK3B
# Method: as §1
# LIMK1 = LIMK1 (Homo sapiens, UniProt P53667)
# Method: as §1
# PKD2 = molecular target: T13, PKD2 (Homo sapiens, UniProt Q9BZL6)
# T13 construct: gene PRKD2
# Method: as §1
# PKCgamma = molecular target: T14, PKCgamma (Homo sapiens, UniProt P05129)
# T14 construct: gene PRKCG
# Method: as §1
# T4 sequence (P07333 whole entry): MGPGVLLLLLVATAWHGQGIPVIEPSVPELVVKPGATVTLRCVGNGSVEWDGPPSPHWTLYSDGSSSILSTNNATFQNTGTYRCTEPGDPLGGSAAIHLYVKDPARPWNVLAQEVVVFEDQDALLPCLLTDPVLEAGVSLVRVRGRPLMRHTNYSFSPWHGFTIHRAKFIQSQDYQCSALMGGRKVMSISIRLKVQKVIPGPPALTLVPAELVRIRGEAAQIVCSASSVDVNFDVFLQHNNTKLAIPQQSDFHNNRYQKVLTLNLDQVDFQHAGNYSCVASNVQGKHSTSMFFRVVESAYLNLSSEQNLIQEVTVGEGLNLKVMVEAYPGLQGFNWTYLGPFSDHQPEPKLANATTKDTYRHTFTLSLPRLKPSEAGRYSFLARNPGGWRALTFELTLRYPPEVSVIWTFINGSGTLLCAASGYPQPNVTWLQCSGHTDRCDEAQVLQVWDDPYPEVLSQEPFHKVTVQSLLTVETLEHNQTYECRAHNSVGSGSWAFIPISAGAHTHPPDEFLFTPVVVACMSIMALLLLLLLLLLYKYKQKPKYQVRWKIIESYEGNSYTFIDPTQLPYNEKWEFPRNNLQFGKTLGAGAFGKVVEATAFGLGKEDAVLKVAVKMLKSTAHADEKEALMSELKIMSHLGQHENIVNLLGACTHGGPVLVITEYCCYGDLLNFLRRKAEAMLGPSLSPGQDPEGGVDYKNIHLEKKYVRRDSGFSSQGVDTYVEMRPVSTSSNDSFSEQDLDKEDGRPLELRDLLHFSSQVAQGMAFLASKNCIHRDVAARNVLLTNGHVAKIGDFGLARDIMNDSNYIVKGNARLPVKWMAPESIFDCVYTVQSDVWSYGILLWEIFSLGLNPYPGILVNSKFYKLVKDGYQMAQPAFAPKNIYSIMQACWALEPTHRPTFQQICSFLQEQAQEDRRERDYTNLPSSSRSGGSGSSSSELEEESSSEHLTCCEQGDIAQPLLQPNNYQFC
# Chain of CDK1/cyclinB (P06493 whole entry): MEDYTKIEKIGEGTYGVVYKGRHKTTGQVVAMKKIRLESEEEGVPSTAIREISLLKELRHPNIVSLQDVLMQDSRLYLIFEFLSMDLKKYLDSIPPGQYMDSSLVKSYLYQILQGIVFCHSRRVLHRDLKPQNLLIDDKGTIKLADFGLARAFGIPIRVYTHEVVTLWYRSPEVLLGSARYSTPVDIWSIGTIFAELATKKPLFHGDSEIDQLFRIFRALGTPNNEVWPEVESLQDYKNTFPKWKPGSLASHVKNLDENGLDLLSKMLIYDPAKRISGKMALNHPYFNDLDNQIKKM
# Chain of CDK1/cyclinB (P14635 whole entry partner): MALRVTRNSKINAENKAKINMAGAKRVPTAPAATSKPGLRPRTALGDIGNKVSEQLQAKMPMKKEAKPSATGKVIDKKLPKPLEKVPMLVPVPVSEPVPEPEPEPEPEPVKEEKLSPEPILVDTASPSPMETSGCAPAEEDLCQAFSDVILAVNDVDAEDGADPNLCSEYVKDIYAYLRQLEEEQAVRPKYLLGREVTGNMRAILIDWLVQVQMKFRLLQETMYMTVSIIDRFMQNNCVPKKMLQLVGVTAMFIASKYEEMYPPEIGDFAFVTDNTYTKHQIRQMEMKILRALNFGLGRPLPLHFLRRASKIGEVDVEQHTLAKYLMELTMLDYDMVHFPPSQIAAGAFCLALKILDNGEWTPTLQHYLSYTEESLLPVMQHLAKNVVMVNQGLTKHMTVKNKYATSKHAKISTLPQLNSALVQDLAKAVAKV
# T3 sequence (Q8IW41 whole entry): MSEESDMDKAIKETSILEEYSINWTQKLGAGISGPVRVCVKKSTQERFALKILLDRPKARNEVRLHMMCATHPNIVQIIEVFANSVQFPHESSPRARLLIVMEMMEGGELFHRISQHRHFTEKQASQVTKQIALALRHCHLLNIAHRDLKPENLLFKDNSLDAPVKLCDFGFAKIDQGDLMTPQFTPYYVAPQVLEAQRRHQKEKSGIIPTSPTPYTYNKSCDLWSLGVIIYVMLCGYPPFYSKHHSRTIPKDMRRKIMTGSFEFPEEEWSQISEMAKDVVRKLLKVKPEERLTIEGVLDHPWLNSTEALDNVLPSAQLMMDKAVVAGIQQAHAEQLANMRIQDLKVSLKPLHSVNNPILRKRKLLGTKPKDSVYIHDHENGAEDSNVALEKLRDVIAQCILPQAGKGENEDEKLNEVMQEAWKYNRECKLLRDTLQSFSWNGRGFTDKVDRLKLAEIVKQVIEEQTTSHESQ
# T9 sequence (P04049 whole entry): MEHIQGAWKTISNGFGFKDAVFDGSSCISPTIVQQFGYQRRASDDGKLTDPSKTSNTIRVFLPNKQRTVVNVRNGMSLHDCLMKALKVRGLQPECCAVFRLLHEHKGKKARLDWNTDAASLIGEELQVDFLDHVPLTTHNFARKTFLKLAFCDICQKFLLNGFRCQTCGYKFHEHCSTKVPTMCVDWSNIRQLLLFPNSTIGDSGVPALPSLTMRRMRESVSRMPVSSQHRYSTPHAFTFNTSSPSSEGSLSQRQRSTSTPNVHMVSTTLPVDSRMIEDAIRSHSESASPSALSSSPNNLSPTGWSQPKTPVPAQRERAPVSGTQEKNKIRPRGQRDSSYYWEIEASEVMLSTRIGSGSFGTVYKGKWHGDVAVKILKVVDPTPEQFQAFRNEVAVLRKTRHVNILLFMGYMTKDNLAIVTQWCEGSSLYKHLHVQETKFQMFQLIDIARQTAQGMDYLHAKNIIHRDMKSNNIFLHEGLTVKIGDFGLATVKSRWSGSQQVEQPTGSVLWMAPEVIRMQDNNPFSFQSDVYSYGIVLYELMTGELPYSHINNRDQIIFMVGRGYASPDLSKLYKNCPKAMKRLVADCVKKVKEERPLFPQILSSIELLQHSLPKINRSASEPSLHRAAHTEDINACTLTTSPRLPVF
# T8 sequence (Q15349 whole entry): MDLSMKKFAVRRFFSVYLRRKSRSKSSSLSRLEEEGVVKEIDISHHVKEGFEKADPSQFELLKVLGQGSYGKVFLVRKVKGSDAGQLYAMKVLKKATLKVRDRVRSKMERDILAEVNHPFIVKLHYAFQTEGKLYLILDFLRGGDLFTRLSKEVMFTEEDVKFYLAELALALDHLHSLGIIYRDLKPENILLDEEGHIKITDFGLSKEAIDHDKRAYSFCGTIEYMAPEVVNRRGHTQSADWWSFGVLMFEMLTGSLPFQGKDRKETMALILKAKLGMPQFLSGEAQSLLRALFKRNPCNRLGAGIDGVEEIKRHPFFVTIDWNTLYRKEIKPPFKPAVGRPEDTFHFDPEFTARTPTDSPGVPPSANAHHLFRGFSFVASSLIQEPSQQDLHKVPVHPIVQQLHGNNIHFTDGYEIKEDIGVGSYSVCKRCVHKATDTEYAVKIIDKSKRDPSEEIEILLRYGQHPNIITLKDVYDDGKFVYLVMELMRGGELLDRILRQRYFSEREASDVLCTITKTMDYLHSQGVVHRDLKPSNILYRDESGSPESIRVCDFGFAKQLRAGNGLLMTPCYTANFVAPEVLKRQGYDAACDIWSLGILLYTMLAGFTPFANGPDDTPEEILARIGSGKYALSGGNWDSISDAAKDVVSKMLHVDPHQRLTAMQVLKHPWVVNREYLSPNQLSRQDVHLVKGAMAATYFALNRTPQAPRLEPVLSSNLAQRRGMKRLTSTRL
# Chain of SRPK2 (P78362 whole entry): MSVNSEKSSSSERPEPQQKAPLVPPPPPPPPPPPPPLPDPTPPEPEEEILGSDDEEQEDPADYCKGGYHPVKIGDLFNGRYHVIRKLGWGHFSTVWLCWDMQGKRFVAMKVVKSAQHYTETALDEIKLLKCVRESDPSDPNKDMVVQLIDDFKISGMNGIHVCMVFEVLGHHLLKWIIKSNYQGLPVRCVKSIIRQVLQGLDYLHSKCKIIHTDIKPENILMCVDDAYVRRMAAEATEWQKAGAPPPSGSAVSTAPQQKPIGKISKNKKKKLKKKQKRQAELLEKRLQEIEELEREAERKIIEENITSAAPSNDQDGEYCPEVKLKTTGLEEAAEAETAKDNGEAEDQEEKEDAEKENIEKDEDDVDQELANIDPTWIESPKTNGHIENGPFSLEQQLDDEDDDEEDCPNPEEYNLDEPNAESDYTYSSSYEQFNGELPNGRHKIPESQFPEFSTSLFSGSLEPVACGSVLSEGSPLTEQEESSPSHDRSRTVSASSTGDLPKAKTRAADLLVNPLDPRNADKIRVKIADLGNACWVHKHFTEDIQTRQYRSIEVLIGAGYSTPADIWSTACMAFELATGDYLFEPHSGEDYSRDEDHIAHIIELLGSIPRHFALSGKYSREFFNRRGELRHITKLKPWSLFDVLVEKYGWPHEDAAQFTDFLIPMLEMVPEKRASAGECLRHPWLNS
# Chain of PAK4 (O96013 whole entry): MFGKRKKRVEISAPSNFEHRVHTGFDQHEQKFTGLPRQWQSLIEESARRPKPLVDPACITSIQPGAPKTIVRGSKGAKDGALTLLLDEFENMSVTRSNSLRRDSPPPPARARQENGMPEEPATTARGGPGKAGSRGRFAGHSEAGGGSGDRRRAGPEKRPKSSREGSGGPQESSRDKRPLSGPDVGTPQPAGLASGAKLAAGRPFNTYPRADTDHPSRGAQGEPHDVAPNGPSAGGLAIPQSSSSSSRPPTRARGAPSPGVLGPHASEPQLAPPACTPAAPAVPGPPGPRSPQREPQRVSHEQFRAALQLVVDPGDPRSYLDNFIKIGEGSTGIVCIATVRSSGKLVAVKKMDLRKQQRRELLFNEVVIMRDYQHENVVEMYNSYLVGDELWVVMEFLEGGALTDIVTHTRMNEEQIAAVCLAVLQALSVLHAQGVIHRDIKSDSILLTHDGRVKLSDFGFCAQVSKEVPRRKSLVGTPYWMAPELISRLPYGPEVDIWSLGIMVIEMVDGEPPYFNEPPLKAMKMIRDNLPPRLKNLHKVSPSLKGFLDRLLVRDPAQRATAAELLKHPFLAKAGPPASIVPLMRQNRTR
structure (smiles),measurement,setting,value
"OCCn1cc(-c2cnc3nnn(Cc4ccc5ncccc5c4)c3n2)cn1 [METi, PF-04217903]",inhibition at 1 µM,ZAP70,3%
same,inhibition at 1 µM,EGFR,0%
same,inhibition at 1 µM,CDK2/CyclinA,0%
same,inhibition at 1 µM,MLCK,-32%
same,inhibition at 1 µM,ASK1,-11%
same,inhibition at 1 µM,PRAK,-2%
same,inhibition at 1 µM,Fms,-12%
same,inhibition at 1 µM,CDK3/cyclinE,5%
same,inhibition at 1 µM,PRK2,-11%
same,inhibition at 1 µM,DDR2,0%
same,inhibition at 1 µM,PI3Kg,1%
same,inhibition at 1 µM,CDK1/cyclinB,-7%
same,inhibition at 1 µM,mouse MKK4,-2%
same,inhibition at 1 µM,Rsk3,-3%
same,inhibition at 1 µM,c-RAF,-16%
same,inhibition at 1 µM,SRPK2,-2%
same,inhibition at 1 µM,PAK4,1%
same,inhibition at 1 µM,MNK2,0%
same,inhibition at 1 µM,DYRK2,-1%
same,inhibition at 1 µM,GSK3beta,-1%
same,inhibition at 1 µM,LIMK1,-7%
same,inhibition at 1 µM,PKD2,5%
same,inhibition at 1 µM,PKCgamma,5%
